The results in this text go back to PMC5218480 (PLoS ONE, 2017).

This assay concerns MV-4-11 cells. The experiment in a line: Gene expression microarray analysis (Affymetrix PrimeView) and GSEA. The class given is cell-based, human. Set-up: RFU PODN (11730768_x_at) / Fold change /veh PODN (11730768_x_at) / RFU LINC00158 (11744669_a_at) / Fold change /veh LINC00158 (11744669_a_at) / RFU DUSP10 (11751237_a_at) / Fold change /veh DUSP10 (11751237_a_at) / RFU ID3 (11757404_x_at) / Fold change /veh ID3 (11757404_x_at) / RFU PLEKHG5 (11737974_s_at) / Fold change /veh PLEKHG5 (11737974_s_at) / RFU LRRC4B (11730491_at) / Fold change /veh LRRC4B (11730491_at) / RFU GIMAP4 (11747438_a_at) / Fold change /veh GIMAP4 (11747438_a_at) / RFU KRT8 (11758183_x_at) / Fold change /veh KRT8 (11758183_x_at) / RFU CNN1 (11734310_a_at) / Fold change /veh CNN1 (11734310_a_at) / RFU VPS37D (11726825_at) / Fold change /veh VPS37D (11726825_at) / RFU C10orf10 (11716522_x_at) / Fold change /veh C10orf10 (11716522_x_at) / RFU KIR2DL2 /// KIR2DL4 /// KIR2DL5A /// KIR2DL5B /// KIR2DS1 /// KIR2DS2 /// KIR2DS3 /// KIR2DS4 /// KIR3DL3 /// KIR3DL3 /// KIR3DS1 (11738374_at) / Fold change /veh KIR2DL2 /// KIR2DL4 /// KIR2DL5A /// KIR2DL5B /// KIR2DS1 /// KIR2DS2 /// KIR2DS3 /// KIR2DS4 /// KIR3DL3 /// KIR3DL3 /// KIR3DS1 (11738374_at) / RFU C1QL1 (11718748_at) / Fold change /veh C1QL1 (11718748_at) / RFU TMPRSS4 (11747572_a_at) / Fold change /veh TMPRSS4 (11747572_a_at) / RFU HAMP (11756126_x_at) / Fold change /veh HAMP (11756126_x_at) / RFU RNFT2 (11725882_a_at) / Fold change /veh RNFT2 (11725882_a_at) / RFU NR4A2 (11747474_a_at) / Fold change /veh NR4A2 (11747474_a_at) / RFU ABCC12 (11746883_a_at) / Fold change /veh ABCC12 (11746883_a_at) / RFU TMEM136 (11760407_x_at) / Fold change /veh TMEM136 (11760407_x_at) / RFU CLDN22 /// WWC2 (11732394_at) / Fold change /veh CLDN22 /// WWC2 (11732394_at) / RFU HLA-DPB1 (11760878_x_at) / Fold change /veh HLA-DPB1 (11760878_x_at) / RFU SPINT1 (11716480_a_at) / Fold change /veh SPINT1 (11716480_a_at) / RFU GAP43 (11754022_s_at) / Fold change /veh GAP43 (11754022_s_at) / RFU A4GNT (11735810_at) / Fold change /veh A4GNT (11735810_at) / RFU PRB3 (11715151_x_at) / Fold change /veh PRB3 (11715151_x_at) / RFU TUBB4B (11761932_at) / Fold change /veh TUBB4B (11761932_at) / RFU CAPN14 (11732068_a_at) / Fold change /veh CAPN14 (11732068_a_at) / RFU TMCC2 (11721928_a_at) / Fold change /veh TMCC2 (11721928_a_at) / RFU IRGQ (11745062_a_at) / Fold change /veh IRGQ (11745062_a_at) / RFU FAM174B (11720279_a_at) / Fold change /veh FAM174B (11720279_a_at) / RFU TMPRSS4 (11748680_a_at) / Fold change /veh TMPRSS4 (11748680_a_at) / RFU FAM212B (11763350_a_at) / Fold change /veh FAM212B (11763350_a_at) / RFU PLEKHG5 (11743358_a_at) / Fold change /veh PLEKHG5 (11743358_a_at) / RFU ZSCAN30 (11745921_a_at) / Fold change /veh ZSCAN30 (11745921_a_at) / RFU CMKLR1 (11741424_a_at) / Fold change /veh CMKLR1 (11741424_a_at) / RFU LOC101060620 /// MAPK8IP1 (11723275_at) / Fold change /veh LOC101060620 /// MAPK8IP1 (11723275_at) / RFU SPTSSB (11747773_x_at) / Fold change /veh SPTSSB (11747773_x_at) / RFU PRSS12 (11739890_at) / Fold change /veh PRSS12 (11739890_at) / RFU BIN1 (11741810_x_at) / Fold change /veh BIN1 (11741810_x_at) / RFU WNT11 (11732464_a_at) / Fold change /veh WNT11 (11732464_a_at) / RFU C10orf10 (11716521_a_at) / Fold change /veh C10orf10 (11716521_a_at) / RFU C5orf56 (11738089_at) / Fold change /veh C5orf56 (11738089_at) / RFU CYB561 (11721691_x_at) / Fold change /veh CYB561 (11721691_x_at) / RFU ANKRD19P (11752326_a_at) / Fold change /veh ANKRD19P (11752326_a_at) / RFU OR2T12 /// OR2T33 /// OR2T8 (11738714_s_at) / Fold change /veh OR2T12 /// OR2T33 /// OR2T8 (11738714_s_at) / RFU VCAN (11748164_a_at) / Fold change /veh VCAN (11748164_a_at) / RFU JSRP1 (11732532_at) / Fold change /veh JSRP1 (11732532_at) / RFU KRTAP10-11 (11738290_x_at) / Fold change /veh KRTAP10-11 (11738290_x_at) / RFU MYO3A (11730013_a_at) / Fold change /veh MYO3A (11730013_a_at) / RFU EBF3 (11725865_a_at) / Fold change /veh EBF3 (11725865_a_at) / RFU CAMK2N1 (11719241_x_at) / Fold change /veh CAMK2N1 (11719241_x_at) / RFU C5orf56 (11738088_a_at) / Fold change /veh C5orf56 (11738088_a_at) / RFU OLFML3 (11715873_a_at) / Fold change /veh OLFML3 (11715873_a_at) / RFU LOC100653217 /// NTM (11731650_a_at) / Fold change /veh LOC100653217 /// NTM (11731650_a_at) / RFU MAPK11 (11762145_a_at) / Fold change /veh MAPK11 (11762145_a_at) / RFU FIZ1 (11724087_x_at) / Fold change /veh FIZ1 (11724087_x_at) / RFU OASL (11726364_x_at) / Fold change /veh OASL (11726364_x_at) / RFU SOX15 (11748057_x_at) / Fold change /veh SOX15 (11748057_x_at) / RFU CD79A (11719716_a_at) / Fold change /veh CD79A (11719716_a_at) / RFU HIST1H1D (11736915_at) / Fold change /veh HIST1H1D (11736915_at) / RFU CASKIN2 (11723855_a_at) / Fold change /veh CASKIN2 (11723855_a_at) / RFU LOC730098 (11760151_x_at) / Fold change /veh LOC730098 (11760151_x_at) / RFU OR4N2 (11742367_at) / Fold change /veh OR4N2 (11742367_at) / RFU PRRT2 (11749266_a_at) / Fold change /veh PRRT2 (11749266_a_at) / RFU SNX32 (11753110_a_at) / Fold change /veh SNX32 (11753110_a_at) / RFU CDHR5 (11726645_a_at) / Fold change /veh CDHR5 (11726645_a_at) / RFU RCAN1 (11760418_a_at) / Fold change /veh RCAN1 (11760418_a_at) / RFU FAM167A (11723789_a_at) / Fold change /veh FAM167A (11723789_a_at) / RFU FAM26E (11764081_at) / Fold change /veh FAM26E (11764081_at) / RFU ISYNA1 (11749810_s_at) / Fold change /veh ISYNA1 (11749810_s_at) / RFU ACY1 (11761880_at) / Fold change /veh ACY1 (11761880_at) / RFU 11764098_at / Fold change /veh 11764098_at / RFU SAMD14 (11745864_x_at) / Fold change /veh SAMD14 (11745864_x_at) / RFU NPB (11741838_a_at) / Fold change /veh NPB (11741838_a_at) / RFU TMPRSS6 (11731388_a_at) / Fold change /veh TMPRSS6 (11731388_a_at) / RFU KRTAP10-2 (11738614_at) / Fold change /veh KRTAP10-2 (11738614_at) / RFU ARHGAP8 /// PRR5-ARHGAP8 (11727945_x_at) / Fold change /veh ARHGAP8 /// PRR5-ARHGAP8 (11727945_x_at) / RFU KRTAP5-7 /// NADSYN1 (11734609_at) / Fold change /veh KRTAP5-7 /// NADSYN1 (11734609_at) / RFU RASL12 (11751679_a_at) / Fold change /veh RASL12 (11751679_a_at) / RFU CDKN2B (11736163_a_at) / Fold change /veh CDKN2B (11736163_a_at) / RFU PRF1 (11729649_at) / Fold change /veh PRF1 (11729649_at) / RFU, ZNF638 /// ZNF638-IT1 / Fold change vs veh, ZNF638 /// ZNF638-IT1 / RFU, PANK3 / Fold change vs veh, PANK3 / RFU, SH3YL1 / Fold change vs veh, SH3YL1 / RFU, ZEB2 / Fold change vs veh, ZEB2 / RFU, NRIP1 / Fold change vs veh, NRIP1 / RFU, PTTG1IP / Fold change vs veh, PTTG1IP / RFU, CAPN2 / Fold change vs veh, CAPN2 / RFU, MED14 / Fold change vs veh, MED14 / RFU, SNORA58 / Fold change vs veh, SNORA58 / RFU, C1orf63 / Fold change vs veh, C1orf63 / RFU, LRRFIP1 / Fold change vs veh, LRRFIP1 / RFU, NDUFAF7 / Fold change vs veh, NDUFAF7 / RFU, SLC12A2 / Fold change vs veh, SLC12A2 / RFU, IBTK / Fold change vs veh, IBTK / RFU, ESF1 / Fold change vs veh, ESF1 / Fold change vs veh, TMEM50B / RFU, TAOK1 / Fold change vs veh, TAOK1 / RFU, ACBD3 / Fold change vs veh, ACBD3 / RFU, TMA16 / Fold change vs veh, TMA16 / RFU, RWDD3 / Fold change vs veh, RWDD3 / RFU, BCAT1 / Fold change vs veh, BCAT1 / RFU, EDEM3 / Fold change vs veh, EDEM3 / RFU, TMEM33 / Fold change vs veh, TMEM33 / RFU, WDR75 / Fold change vs veh, WDR75 / RFU, AHCTF1 / Fold change vs veh, AHCTF1 / RFU, TFRC / Fold change vs veh, TFRC / RFU, ZDHHC17 / Fold change vs veh, ZDHHC17 / RFU, NOM1 / Fold change vs veh, NOM1 / RFU, ARL8B / Fold change vs veh, ARL8B / RFU, ZBTB11 / Fold change vs veh, ZBTB11 / RFU, TAMM41 / Fold change vs veh, TAMM41 / RFU, KIAA1704 /// LOC100996395 / Fold change vs veh, KIAA1704 /// LOC100996395 / RFU, ING1 / Fold change vs veh, ING1 / RFU, TRMT61B / Fold change vs veh, TRMT61B / RFU, FUBP3 / Fold change vs veh, FUBP3 / RFU, TP53 / Fold change vs veh, TP53 / RFU, TNKS2 / Fold change vs veh, TNKS2 / RFU, ZFP14 / Fold change vs veh, ZFP14 / RFU, ACTR2 / Fold change vs veh, ACTR2 / RFU, PPP3R1 / Fold change vs veh, PPP3R1 / RFU, PIK3R1 / Fold change vs veh, PIK3R1 / RFU, HNRNPA1 / Fold change vs veh, HNRNPA1 / RFU, RNF170 / Fold change vs veh, RNF170 / RFU, ZNF28 / Fold change vs veh, ZNF28 / RFU, RNGTT / Fold change vs veh, RNGTT / RFU, OGT / Fold change vs veh, OGT / RFU, BRD1 / Fold change vs veh, BRD1 / RFU, MARS / Fold change vs veh, MARS / RFU, ZNF655 / Fold change vs veh, ZNF655 / RFU, FAHD1 / Fold change vs veh, FAHD1 / RFU, BDP1 / Fold change vs veh, BDP1 / RFU, LRRCC1 / Fold change vs veh, LRRCC1 / RFU, ARID1A / Fold change vs veh, ARID1A / RFU, ZNF146 / Fold change vs veh, ZNF146 / RFU, ZNF330 / Fold change vs veh, ZNF330 / RFU, GPN3 / Fold change vs veh, GPN3 / RFU, C9orf123 / Fold change vs veh, C9orf123 / RFU, N4BP2L2 / Fold change vs veh, N4BP2L2 / RFU, ARFIP1 / Fold change vs veh, ARFIP1 / RFU, FAM179B / Fold change vs veh, FAM179B / RFU, BCL10 / Fold change vs veh, BCL10 / RFU, UHRF1BP1L / Fold change vs veh, UHRF1BP1L / RFU, BET1 / Fold change vs veh, BET1 / RFU, CNOT2 / Fold change vs veh, CNOT2 / RFU, ZNF268 / Fold change vs veh, ZNF268 / Fold change vs veh, ZNF507 / RFU, DGCR2 / Fold change vs veh, DGCR2 / RFU, WDSUB1 / Fold change vs veh, WDSUB1 / Fold change vs veh, HSP90B1 /// MIR3652 / RFU, ADSS / Fold change vs veh, ADSS / RFU, GK / Fold change vs veh, GK / RFU, ZNF148 / Fold change vs veh, ZNF148 / RFU, TAF9 / Fold change vs veh, TAF9 / RFU, SLC1A5 / Fold change vs veh, SLC1A5 / RFU, SLMO2 / Fold change vs veh, SLMO2 / RFU, ABCC4 / Fold change vs veh, ABCC4 / RFU, LOC101060439 /// RAP1B / Fold change vs veh, LOC101060439 /// RAP1B / RFU, RFX7 / Fold change vs veh, RFX7 / RFU, GTPBP10 / Fold change vs veh, GTPBP10 / RFU, CNEP1R1 / Fold change vs veh, CNEP1R1 / RFU, BIVM-ERCC5 /// ERCC5 / Fold change vs veh, BIVM-ERCC5 /// ERCC5 / RFU, ILF3 / Fold change vs veh, ILF3 / RFU 11762660_at / Fold change /veh 11762660_at / RFU VCAN (11757783_s_at) / Fold change /veh VCAN (11757783_s_at) / RFU DDX43 (11728927_at) / Fold change /veh DDX43 (11728927_at) / RFU KRT8 (11758188_x_at) / Fold change /veh KRT8 (11758188_x_at) / RFU NKD1 (11759106_at) / Fold change /veh NKD1 (11759106_at) / RFU SRD5A1 (11742802_a_at) / Fold change /veh SRD5A1 (11742802_a_at) / RFU TPSAB1 /// TPSB2 (11721975_s_at) / Fold change /veh TPSAB1 /// TPSB2 (11721975_s_at) / RFU GSTM3 (11746129_a_at) / Fold change /veh GSTM3 (11746129_a_at) / RFU IL23R (11737362_x_at) / Fold change /veh IL23R (11737362_x_at) / RFU TMEM51 (11727254_a_at) / Fold change /veh TMEM51 (11727254_a_at) / RFU PIWIL2 (11732686_x_at) / Fold change /veh PIWIL2 (11732686_x_at) / RFU ORM1 (11744905_x_at) / Fold change /veh ORM1 (11744905_x_at) / RFU CCDC152 (11743942_at) / Fold change /veh CCDC152 (11743942_at) / RFU ECM1 (11717891_a_at) / Fold change /veh ECM1 (11717891_a_at) / RFU IL23R (11748794_a_at) / Fold change /veh IL23R (11748794_a_at) / RFU TNFAIP8L3 (11732012_x_at) / Fold change /veh TNFAIP8L3 (11732012_x_at) / RFU MBOAT4 (11741988_at) / Fold change /veh MBOAT4 (11741988_at) / RFU 11764193_at / Fold change /veh 11764193_at / RFU TMEM53 (11763286_at) / Fold change /veh TMEM53 (11763286_at) / RFU MAGEB2 (11727129_at) / Fold change /veh MAGEB2 (11727129_at) / RFU TMEM200A (11744735_a_at) / Fold change /veh TMEM200A (11744735_a_at) / RFU CCDC152 (11751479_a_at) / Fold change /veh CCDC152 (11751479_a_at) / RFU FAM211A (11726209_a_at) / Fold change /veh FAM211A (11726209_a_at) / RFU RGS16 (11746705_a_at) / Fold change /veh RGS16 (11746705_a_at) / RFU VCAN (11755009_s_at) / Fold change /veh VCAN (11755009_s_at) / RFU RHOB (11743442_s_at) / Fold change /veh RHOB (11743442_s_at) / RFU RGS16 (11720943_a_at) / Fold change /veh RGS16 (11720943_a_at) / RFU RGS16 (11720944_at) / Fold change /veh RGS16 (11720944_at) / RFU, VPS4B / Fold change vs veh, VPS4B / RFU, CREB1 / Fold change vs veh, CREB1 / RFU, DNAJC13 / Fold change vs veh, DNAJC13 / RFU, GNAQ / Fold change vs veh, GNAQ / RFU, CDK5R1 / Fold change vs veh, CDK5R1 / RFU, ZRANB3 / Fold change vs veh, ZRANB3 / RFU, CUL4A / Fold change vs veh, CUL4A / RFU, CCNY / Fold change vs veh, CCNY / RFU, UFL1 / Fold change vs veh, UFL1 / RFU, COG3 / Fold change vs veh, COG3 / RFU, DIAPH2 / Fold change vs veh, DIAPH2 / RFU, SKA2 / Fold change vs veh, SKA2 / RFU, AFF3 / Fold change vs veh, AFF3 / RFU, LMF1 / Fold change vs veh, LMF1 / RFU, IPO11 / Fold change vs veh, IPO11 / RFU, DFFB / Fold change vs veh, DFFB / RFU, FOXP1 / Fold change vs veh, FOXP1 / RFU, CARD8 / Fold change vs veh, CARD8 / RFU, STRN3 / Fold change vs veh, STRN3 / RFU, ADK / Fold change vs veh, ADK / RFU, RASSF2 / Fold change vs veh, RASSF2 / RFU, WIPF1 / Fold change vs veh, WIPF1 / RFU, LARP1B / Fold change vs veh, LARP1B / RFU, RASA1 / Fold change vs veh, RASA1 / RFU, RB1 / Fold change vs veh, RB1 / RFU, PPFIA1 / Fold change vs veh, PPFIA1 / RFU, MAT2A / Fold change vs veh, MAT2A / RFU, CCT5 / Fold change vs veh, CCT5 / RFU, WDR92 / Fold change vs veh, WDR92 / RFU, CUX1 / Fold change vs veh, CUX1 / RFU, TTC7A / Fold change vs veh, TTC7A / RFU, TMEM135 / Fold change vs veh, TMEM135 / RFU, DEPTOR / Fold change vs veh, DEPTOR / RFU, CPM / Fold change vs veh, CPM / RFU, DNAJB6 / Fold change vs veh, DNAJB6 / RFU, CACNA2D3 / Fold change vs veh, CACNA2D3 / RFU, DTX4 / Fold change vs veh, DTX4 / RFU, TFCP2 / Fold change vs veh, TFCP2 / RFU, GMCL1 /// GMCL1P1 / Fold change vs veh, GMCL1 /// GMCL1P1 / RFU, AEBP2 / Fold change vs veh, AEBP2 / RFU, SNHG1 /// SNORD22 /// SNORD25 /// SNORD26 /// SNORD27 /// SNORD28 /// SNORD29 /// SNORD31 / Fold change vs veh, SNHG1 /// SNORD22 /// SNORD25 /// SNORD26 /// SNORD27 /// SNORD28 /// SNORD29 /// SNORD31 / Fold change (Aza/veh), C12orf56 (ProbeSet 11735607_a_at) / Fold change (ACY-1035/veh), C12orf56 (ProbeSet 11735607_a_at) / Fold change (Aza/veh), FGFR1OP (ProbeSet 11751329_s_at) / Fold change (ACY-1035/veh), FGFR1OP (ProbeSet 11751329_s_at) / Fold change (Aza/veh), VPS36 (ProbeSet 11739960_a_at) / Fold change (ACY-1035/veh), VPS36 (ProbeSet 11739960_a_at) / RFU SYPL1 (11715823_x_at) / Fold change /veh SYPL1 (11715823_x_at) / RFU IGFBP7 (11715501_s_at) / Fold change /veh IGFBP7 (11715501_s_at) / RFU REEP3 (11722064_at) / Fold change /veh REEP3 (11722064_at) / RFU IGLL1 (11728026_x_at) / Fold change /veh IGLL1 (11728026_x_at): dose or concentration left out as unconfirmed. The settings on record: ProbeSet 11746640_a_at; LIST D.

Each structure is given as a SMILES string.

With `Nc1ncn([C@@H]2O[C@H](CO)[C@@H](O)[C@H]2O)c(=O)n1` [azacitidine], the “RFU, RASSF2” value is given as 35.94 RFU.
